{"source": "paper PMC3924858", "about": "(Journal of medicinal chemistry, 2013)", "molecular_target": "human mGlu5 receptor (Homo sapiens, UniProt P41594)", "sequence (P41594 21-1180 isoform P41594-2 limits assumed)": "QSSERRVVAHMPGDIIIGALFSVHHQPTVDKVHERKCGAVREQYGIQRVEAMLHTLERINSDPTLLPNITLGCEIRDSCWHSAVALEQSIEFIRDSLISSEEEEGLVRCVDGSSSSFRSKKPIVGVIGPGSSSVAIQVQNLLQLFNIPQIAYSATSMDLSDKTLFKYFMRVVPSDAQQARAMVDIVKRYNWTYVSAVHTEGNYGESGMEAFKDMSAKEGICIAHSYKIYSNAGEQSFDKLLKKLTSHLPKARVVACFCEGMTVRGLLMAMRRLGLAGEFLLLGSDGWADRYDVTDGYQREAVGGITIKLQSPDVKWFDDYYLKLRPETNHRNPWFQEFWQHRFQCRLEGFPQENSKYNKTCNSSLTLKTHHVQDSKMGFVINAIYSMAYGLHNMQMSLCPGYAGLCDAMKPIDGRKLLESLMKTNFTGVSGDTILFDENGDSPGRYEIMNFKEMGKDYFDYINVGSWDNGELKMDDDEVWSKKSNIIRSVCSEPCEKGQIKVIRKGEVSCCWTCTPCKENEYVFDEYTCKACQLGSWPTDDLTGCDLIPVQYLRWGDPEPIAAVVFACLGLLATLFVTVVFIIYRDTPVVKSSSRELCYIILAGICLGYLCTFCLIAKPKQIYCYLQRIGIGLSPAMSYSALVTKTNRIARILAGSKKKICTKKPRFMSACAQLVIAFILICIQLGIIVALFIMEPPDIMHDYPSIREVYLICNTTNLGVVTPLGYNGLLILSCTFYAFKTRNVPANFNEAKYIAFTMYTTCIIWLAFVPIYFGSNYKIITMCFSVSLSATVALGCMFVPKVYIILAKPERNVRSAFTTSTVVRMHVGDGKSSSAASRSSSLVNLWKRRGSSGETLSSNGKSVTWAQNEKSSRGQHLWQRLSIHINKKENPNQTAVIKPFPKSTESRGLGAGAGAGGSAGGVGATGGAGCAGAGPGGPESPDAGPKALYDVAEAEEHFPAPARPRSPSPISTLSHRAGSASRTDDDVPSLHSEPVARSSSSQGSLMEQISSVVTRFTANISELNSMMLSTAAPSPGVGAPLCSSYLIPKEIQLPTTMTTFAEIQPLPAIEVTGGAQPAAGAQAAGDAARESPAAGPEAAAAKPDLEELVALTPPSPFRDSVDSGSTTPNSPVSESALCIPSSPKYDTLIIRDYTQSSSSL", "data": [{"smiles": "O=C1c2sc(COc3ccccc3)nc2CCN1c1ccc(F)cn1", "note": "[16p, 5-(5-Fluoro-pyridin-2-yl)-2-phenoxymethyl-6,7-dihydro-5H-thiazolo[5,4-c]pyridin-4-one]", "values": [{"measurement": "Glu Max", "value": "94 (89-99) %"}]}]}
